Patent US20170095467A1, “ENCAPSULATION OF ISOQUINOLINE ALKALOIDS” (Rhizofeed, LLC, priority 2015, published 2017)

Assays:
[1] = Heat degradation of alkaloids in crude extract / extraction with heat; assay type: physicochemical
Procedure: Two preliminary studies involving heat were conducted. In one study, the raw bloodroot powder was placed on a heating element for 24 hours while the alkaloid was extracted. […] In a second study, a crude extract of alkaloids was placed on a heating element at 67° C. to test for degradation.

[2] = Photosensitivity of sanguinarine and chelerythrine in crude rhizome extract under short-wave UV light (HPLC); assay type: physicochemical
Procedure: 2 mL of each sample was then collected. All dilutions were filtered through 0.22 um syringe filter (Restek) and were stored in a dark environment held at −4° C. Mobile phases were prepared using 40% acetonitrile, 59% distilled water, and 1% acetic acid. The flow rate was 1.0000 mL/minute, and a pressure of approximately 2161.06 psi was maintained. UV visible spectroscopy was used to determine the optimum wavelength of detection, and detection was carried out at 330 nm. Preliminary studies determined that isoquinoline alkaloids are […] under UV light. In a purified state, it has been established that Sanguinarine undergoes photochemical conversion to oxysanguinarine. […] As depicted in Table 7 and FIG. 5, exposure to light or UV radiation over any period of time has a detrimental effect on the encapsulation yield. According to certain embodiments, exposure to light and UV radiation can be minimized by storing the alkaloids in dark conditions until the encapsulation process is complete or the finished product is used.

[3] = system: rats; details: rat, in vivo; cited from earlier work
[4] = Encapsulate degradation by UV light; assay type: physicochemical
Source text: (§1) The optimized encapsulation method disclosed herein was employed to produce alkaloid loaded inulin beads. These beads were subjected to both heat and light to determine the protective properties conferred by the microencapsulation process.
To determine the light protection provided by the microencapsulation process, 1 g of inulin beads was exposed to a UV source (115V Arthur H. Thomas Co. Lamp).

[5] = Encapsulate degradation by heat (oven / pelletization-like conditions); assay type: physicochemical; details: 24 h
Procedure: as §1
To determine the protection the microencapsulation process provides against heat, 1 g of inulin beads was placed in a Fischer Scientific model 605G Isotemp Oven for 24 hours at 96° C. A comparative example of sanguinarine standard that was not encapsulated was also placed in the oven.
A second study was also performed to understand the effect pelletization could have on the microcapsules. In the second study, 1 g of inulin beads was placed in a loosely covered beaker and subjected to 121° C. heat and 16 psi conditions for 20 minutes. These values are much higher in magnitude and duration than will be endured in the pelletization process for animal feed. As depicted in Table 10, the microcapsules decreased degradation by a factor of 1.62.

[6] = Crude Extract Exposed to Heat (24 Hours)
[7] = Standard Extraction (No Heat or Light Exposure)
[8] = Crude Extract Exposed to UV Light (24 Hours)
[9] = Crude Extract Exposed to UV Light (48 Hours)
[10] = Crude Extract Exposed to UV Light (72 Hours)
[11] = Crude Extract Exposed to UV Light (144 Hours)

Row | Structure (SMILES) | Percentage of alkaloid in Extract [1, 6] | Percentage of alkaloid in Extract ([1]; Extracted with Heat (24 Hours)) | Percentage of alkaloid in Extract [1, 7] | Percentage of alkaloid in Extract [2, 8] | Percentage of alkaloid in Extract [2, 9] | Percentage of alkaloid in Extract [2, 10] | Percentage of alkaloid in Extract [2, 11] | Percentage of alkaloid in Extract [2, 7] | LD50 [3] | Percent Degradation [4] | Post-Exposure Alkaloid conc. [4] | Pre-exposure Alkaloid conc. [4] | Percent Degradation ([5]; 96° C.) | Post-Exposure Alkaloid concentration ([5]; 96° C.) | Pre-exposure Alkaloid concentration ([5]; 96° C.) | Percent Degradation ([5]; 121° C., 16 psi, Sang. Only) | Post-Exposure Alkaloid concentration ([5]; 121° C., 16 psi, Sang. Only) | Pre-exposure Alkaloid concentration ([5]; 121° C., 16 psi, Sang. Only)
1 | COc1ccc2c(c[n+](C)c3c4cc5c(cc4ccc23)OCO5)c1OC [Chelerythrine, chelerythrine] | 1.81% | 2.43% | 2.95% | 1.50% | 1.46% | 1.45% | 1.30% | 2.95% |  |  |  |  |  |  |  |  |  | 
2 | C[n+]1cc2c3c(ccc2c2ccc4cc5c(cc4c21)OCO5)OCO3 [Sanguinarine, sanguinarine] | 4.28% | 3.41% | 5.21% | 2.61% | 2.41% | 2.35% | 1.26% | 5.21% | 1658 mg/kg |  |  |  |  |  |  |  |  | 
3 | C[n+]1cc2c3c(ccc2c2ccc4cc5c(cc4c21)OCO5)OCO3 [Standard, sanguinarine chloride] |  |  |  |  |  |  |  |  |  | 49.80% | 0.154 mg/mL | 0.307 mg/mL | 25.40% | 0.229 mg/mL | 0.307 mg/mL | 63.30% | .07306 (Sang mg/mL | .2002 (Sang. mg/mL
